Where a name gives a salt, the structure may show the parent alone.
biological target: T1, hBUB1 (Homo sapiens, UniProt O43683); assay: hBUB1 kinase activity assay (biochemical fluorescence polarization assay, IMAP); settings: BUB1/BUB3 3.26 nM, ATP 15 µM, BUB1/BUB3 substrate 75 nM; N=2, n=2
T1 construct: purchased Carna Biosciences 05-187
Description: This protocol describes how the Kinase Activity Assay was performed to determine pIC50 values of compounds of general formula (I) against hBUB1.
Assays were performed in 384-well plates (Greiner, black, flat bottom, 781076) by sequential addition (final concentrations are indicated) of inhibitor (5 µL, 0.3 nM - 1 µM or 3 nM - 10 µM), BUB1/BUB3 (5 µL, 3.26 nM, Carna Biosciences (05-187), lot: 15CBS-0644 D), ATP (5 µL, 15 µM) and BUB1/BUB3 substrate (5 µL, 75 nM, Carna Biosciences (05-187MSSU)), all as 4x working solutions. The final concentration of DMSO was 1%. Assay reactions were stopped by addition of IMAP progressive binding reagent (20 µL, 1200x diluted, Molecular Devices (R8155), lot: 3117896). Each assay included the following controls: (i) a background control (treated with vehicle instead of inhibitor and BUB1/BUB3 substrate), (ii) MIN controls (treated with 5 µM BAY1816032 (MedChem Express) as inhibitor, used as 0% BUB1 activity) and (iii) MAX controls (treated with vehicle instead of inhibitor, used as 100% BUB1 activity). All inhibitors were tested in two separate assays and all inhibitor concentrations were tested in duplicate per assay (N=2, n=2).
For each assay, assay buffer (AB) was freshly prepared and consisted of 20 mM HEPES (prepared by diluting 1 M HEPES, pH 7.2), 5 mM MgCl2, 0.01% Tween-20 and 1 mM DTT. Stocks of inhibitors (in DMSO) were diluted in AB to obtain 4x working solutions (4% DMSO) and 5 µL was added to the assay plate. BUB1/BUB3 (3.26 µM (486 µg/mL) in storage buffer) was diluted in AB to obtain 13.0 nM of which 5 µL was added to all wells of the assay plate. The assay plate was centrifuged (1 min, 200 g) and incubated at RT for 30 min. ATP (4 mM in MilliQ) was diluted in AB to obtain 60 µM of which 5 µL was added to each well. BUB1/BUB3 substrate (1 mM) was diluted in 20 mM HEPES (prepared by diluting 1 M HEPES (pH 7.2) in MilliQ) to obtain 80 µM (this solution was freshly prepared every assay) and further diluted in AB to obtain 300 nM after which 5 µL was added to each well of the assay plate except for background control wells. The assay plate was centrifuged (1 min, 200 g) and incubated at RT in the dark for 180 min. IMAP progressive binding buffer A (5x) and IMAP progressive binding buffer B (5x) were mixed in a ratio to obtain 30% buffer A and 70% buffer B, which was subsequently diluted 5x in MilliQ. IMAP progressive binding reagent was diluted 600x in aforementioned mixture of buffer A and B (to obtain a 2x working solution) of which 20 µL was added to each well of the assay plate. The assay plate was centrifuged (1 min, 200 g) and incubated at RT in the dark for 90 min. Fluorescence polarization was measured on a CLARIOstar plate reader using the following settings: (i) optic settings → excitation = F: 482-16, dichroic = F: LP 504, emission = F: 530-40, (ii) optic = top optic, (iii) speed/precision = maximum precision, (iv) focus adjustment was performed for every assay and (v) gain adjustment was done by setting the target mP value to 35 mP for one of the MIN control wells. Data was normalized between MIN and MAX controls and data was plotted using GraphPad Prism 8.0 using "Nonlinear regression (curve fit)" and "log(inhibitor) vs. normalized response - Variable slope" to determine pIC50 values.
Inhibition is indicated as pIC50 ("-" = not measured). Compounds having an activity designated as "A" provided an pIC50 ≥ 7.0 (IC50 ≤100 nM); compounds having an activity designated as "B" provided an 6.3 ≤ pIC50 < 7.0 (100 nM<IC50 ≤ 500 nM); compounds having an activity designated as "C" provided an 6.0 ≤ pIC50 < 6.3 (500 nM < IC50 ≤ 1 µM); compounds having an activity designated as "D" provided an 6.0 < pIC50 ≤ 5.0 (1 µM < IC50 ≤ 10 µM); and compounds having an activity designated as "E" provided an pIC50 < 5.0 (IC50 >10 µM).

T1 sequence (O43683 whole entry): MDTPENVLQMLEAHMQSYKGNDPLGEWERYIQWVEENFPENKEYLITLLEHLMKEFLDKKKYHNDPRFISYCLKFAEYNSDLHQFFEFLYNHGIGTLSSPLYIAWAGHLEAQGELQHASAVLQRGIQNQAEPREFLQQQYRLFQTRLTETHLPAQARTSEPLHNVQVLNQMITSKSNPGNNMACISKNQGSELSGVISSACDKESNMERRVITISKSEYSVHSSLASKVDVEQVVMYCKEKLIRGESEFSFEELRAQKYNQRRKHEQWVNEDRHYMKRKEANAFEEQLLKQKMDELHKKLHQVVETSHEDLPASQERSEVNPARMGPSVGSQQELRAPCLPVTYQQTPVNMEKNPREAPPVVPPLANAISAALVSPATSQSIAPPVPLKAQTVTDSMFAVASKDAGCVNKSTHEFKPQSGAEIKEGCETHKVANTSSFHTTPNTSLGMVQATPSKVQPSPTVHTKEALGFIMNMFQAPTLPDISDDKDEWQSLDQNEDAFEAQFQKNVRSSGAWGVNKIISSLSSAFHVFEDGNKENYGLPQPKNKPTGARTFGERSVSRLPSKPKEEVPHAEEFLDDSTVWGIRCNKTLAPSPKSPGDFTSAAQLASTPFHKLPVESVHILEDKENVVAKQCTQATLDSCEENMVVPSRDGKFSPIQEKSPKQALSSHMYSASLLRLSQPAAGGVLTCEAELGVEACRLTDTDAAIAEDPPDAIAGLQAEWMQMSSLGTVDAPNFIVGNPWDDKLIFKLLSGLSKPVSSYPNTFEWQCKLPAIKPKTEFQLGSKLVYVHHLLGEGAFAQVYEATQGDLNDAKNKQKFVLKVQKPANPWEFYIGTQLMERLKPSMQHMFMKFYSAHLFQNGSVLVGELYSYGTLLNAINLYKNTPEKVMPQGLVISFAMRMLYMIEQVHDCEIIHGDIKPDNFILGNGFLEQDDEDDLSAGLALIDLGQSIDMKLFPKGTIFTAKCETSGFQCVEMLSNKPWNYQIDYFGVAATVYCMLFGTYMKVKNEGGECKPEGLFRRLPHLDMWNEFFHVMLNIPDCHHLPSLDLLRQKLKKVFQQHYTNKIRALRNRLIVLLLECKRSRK
T1 sequence (O43684 whole entry partner): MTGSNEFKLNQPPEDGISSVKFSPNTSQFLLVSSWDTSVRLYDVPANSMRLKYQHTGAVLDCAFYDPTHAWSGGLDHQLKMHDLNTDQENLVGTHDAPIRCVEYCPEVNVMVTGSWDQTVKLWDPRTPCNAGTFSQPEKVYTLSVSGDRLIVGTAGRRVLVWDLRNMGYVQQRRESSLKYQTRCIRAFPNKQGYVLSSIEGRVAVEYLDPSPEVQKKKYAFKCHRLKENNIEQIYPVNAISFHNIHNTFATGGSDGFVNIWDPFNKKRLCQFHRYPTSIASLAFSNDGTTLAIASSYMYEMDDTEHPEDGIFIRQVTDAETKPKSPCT

Row | SMILES | hBUB1 pIC50
1 | c1ccc(-c2nccc(Nc3c[nH]nc3-c3nc4ccccc4[nH]3)n2)cc1 [Compound 23, N-(3-(1H-benzo[d]imidazol-2-yl)-1H-pyrazol-4-yl)-2-phenylpyrimidin-4-amine] | D (6.0 < pIC50 ≤ 5.0 (1 µM < IC50 ≤ 10 µM))
2 | Cc1ccccc1-c1nccc(Nc2c[nH]nc2-c2nc3ccccc3[nH]2)n1 [Compound 24, N-(3-(1H-benzo[d]imidazol-2-yl)-1H-pyrazol-4-yl)-2-(o-tolyl)pyrimidin-4-amine] | D (6.0 < pIC50 ≤ 5.0 (1 µM < IC50 ≤ 10 µM))
3 | COc1ccccc1-c1nccc(Nc2c[nH]nc2-c2nc3ccccc3[nH]2)n1 [Compound 26, N-(3-(1H-Benzo[d]imidazol-2-yl)-1H-pyrazol-4-yl)-2-(2-methoxyphenyl)pyrimidin-4-amine] | D (6.0 < pIC50 ≤ 5.0 (1 µM < IC50 ≤ 10 µM))
4 | CC(C)c1cccc(-c2nccc(Nc3c[nH]nc3-c3nc4ccccc4[nH]3)n2)c1 [Compound 30, N-(3-(1H-Benzo[d]imidazol-2-yl)-1H-pyrazol-4-yl)-2-(3-isopropylphenyl)pyrimidin-4-amine] | D (6.0 < pIC50 ≤ 5.0 (1 µM < IC50 ≤ 10 µM))
5 | Cc1ccc(-c2nccc(Nc3c[nH]nc3-c3nc4ccccc4[nH]3)n2)cc1 [Compound 32, N-(3-(1H-Benzo[d]imidazol-2-yl)-1H-pyrazol-4-yl)-2-(p-tolyl)pyrimidin-4-amine] | D (6.0 < pIC50 ≤ 5.0 (1 µM < IC50 ≤ 10 µM))
6 | Clc1ccc(-c2nccc(Nc3c[nH]nc3-c3nc4ccccc4[nH]3)n2)cc1 [Compound 33, N-(3-(1H-Benzo[d]imidazol-2-yl)-1H-pyrazol-4-yl)-2-(4-chlorophenyl)pyrimidin-4-amine] | D (6.0 < pIC50 ≤ 5.0 (1 µM < IC50 ≤ 10 µM))
7 | COc1ccc(-c2nccc(Nc3c[nH]nc3-c3nc4ccccc4[nH]3)n2)cc1 [Compound 34, N-(3-(1H-Benzo[d]imidazol-2-yl)-1H-pyrazol-4-yl)-2-(4-methoxyphenyl)pyrimidin-4-amine] | D (6.0 < pIC50 ≤ 5.0 (1 µM < IC50 ≤ 10 µM))
8 | c1ccc2c(-c3nccc(Nc4c[nH]nc4-c4nc5ccccc5[nH]4)n3)cccc2c1 [Compound 36, N-(3-(1H-Benzo[d]imidazol-2-yl)-1H-pyrazol-4-yl)-2-(naphthalen-1-yl)pyrimidin-4-amine] | D (6.0 < pIC50 ≤ 5.0 (1 µM < IC50 ≤ 10 µM))
9 | c1ccc2[nH]c(-c3n[nH]cc3Nc3ccnc(-c4cccc5[nH]ncc45)n3)nc2c1 [Compound 38, N-(3-(1H-Benzo[d]imidazol-2-yl)-1H-pyrazol-4-yl)-2-(1H-indazol-4-yl)pyrimidin-4-amine] | D (6.0 < pIC50 ≤ 5.0 (1 µM < IC50 ≤ 10 µM))
10 | c1ccc2cc(-c3nccc(Nc4c[nH]nc4-c4nc5ccccc5[nH]4)n3)ccc2c1 [Compound 39, N-(3-(1H-Benzo[d]imidazol-2-yl)-1H-pyrazol-4-yl)-2-(naphthalen-2-yl)pyrimidin-4-amine] | D (6.0 < pIC50 ≤ 5.0 (1 µM < IC50 ≤ 10 µM))

same assay, conditions: BUB1/BUB3 3.26 nM, ATP 15 µM, BUB1/BUB3 substrate 75 nM; N=2, n=2; read-out: hBUB1 pIC50 (converted)

Row | IC50 | SMILES
11 | 100 to 501 nM | C#Cc1nccc(Nc2c[nH]nc2-c2nc3cc(CN4CCOCC4)ccc3[nH]2)n1 [Compound 15, 2-ethynyl-N-(3-(5-(morpholinomethyl)-1H-benzo[d]imidazol-2-yl)-1H-pyrazol-4-yl)pyrimidin-4-amine]
12 | 501 to 1000 nM | c1ccc(CCOc2nccc(Nc3c[nH]nc3-c3nc4cc(CN5CCOCC5)ccc4[nH]3)n2)cc1 [Compound 19, N-(3-(5-(morpholinomethyl)-1H-benzo[d]imidazol-2-yl)-1H-pyrazol-4-yl)-2-phenethoxypyrimidin-4-amine]
13 | 501 to 1000 nM | c1cnn(-c2nccc(Nc3c[nH]nc3-c3nc4cc(CN5CCOCC5)ccc4[nH]3)n2)c1 [Compound 20, N-(3-(5-(Morpholinomethyl)-1H-benzo[d]imidazol-2-yl)-1H-pyrazol-4-yl)-2-(1H-pyrazol-1-yl)pyrimidin-4-amine]
14 | 501 to 1000 nM | c1cc(Nc2c[nH]nc2-c2nc3cc(CN4CCOCC4)ccc3[nH]2)nc(-c2ccsc2)n1 [Compound 21, N-(3-(5-(morpholinomethyl)-1H-benzo[d]imidazol-2-yl)-1H-pyrazol-4-yl)-2-(thiophen-3-yl)pyrimidin-4-amine hydrochloride]
15 | 501 to 1000 nM | c1csc(-c2nccc(Nc3c[nH]nc3-c3nc4cc(CN5CCOCC5)ccc4[nH]3)n2)c1 [Compound 22, N-(3-(5-(morpholinomethyl)-1H-benzo[d]imidazol-2-yl)-1H-pyrazol-4-yl)-2-(thiophen-2-yl)pyrimidin-4-amine hydrochloride]
16 | 501 to 1000 nM | Clc1ccccc1-c1nccc(Nc2c[nH]nc2-c2nc3ccccc3[nH]2)n1 [Compound 25, N-(3-(1H-Benzo[d]imidazol-2-yl)-1H-pyrazol-4-yl)-2-(2-chlorophenyl)pyrimidin-4-amine]
17 | 100 to 501 nM | Cc1cccc(-c2nccc(Nc3c[nH]nc3-c3nc4ccccc4[nH]3)n2)c1 [Compound 27, N-(3-(1H-Benzo[d]imidazol-2-yl)-1H-pyrazol-4-yl)-2-(m-tolyl)pyrimidin-4-amine]
18 | 100 to 501 nM | Clc1cccc(-c2nccc(Nc3c[nH]nc3-c3nc4ccccc4[nH]3)n2)c1 [Compound 28, N-(3-(1H-Benzo[d]imidazol-2-yl)-1H-pyrazol-4-yl)-2-(3-chlorophenyl)pyrimidin-4-amine]
19 | 501 to 1000 nM | COc1cccc(-c2nccc(Nc3c[nH]nc3-c3nc4ccccc4[nH]3)n2)c1 [Compound 29, N-(3-(1H-Benzo[d]imidazol-2-yl)-1H-pyrazol-4-yl)-2-(3-methoxyphenyl)pyrimidin-4-amine]
20 | > 10000 nM | c1cc(-c2nccc(Nc3c[nH]nc3-c3nc4ccccc4[nH]3)n2)c2[nH]ccc2c1 [Compound 37, N-(3-(1H-Benzo[d]imidazol-2-yl)-1H-pyrazol-4-yl)-2-(1H-indol-7-yl)pyrimidin-4-amine]
21 | 501 to 1000 nM | Clc1ccccc1Oc1nccc(Nc2c[nH]nc2-c2nc3cc(CN4CCOCC4)ccc3[nH]2)n1 [Compound 48, 2-(2-Chlorophenoxy)-N-(3-(5-(morpholinomethyl)-1H-benzo[d]imidazol-2-yl)-1H-pyrazol-4-yl)pyrimidin-4-amine]
22 | 501 to 1000 nM | Clc1cccc(Oc2nccc(Nc3c[nH]nc3-c3nc4cc(CN5CCOCC5)ccc4[nH]3)n2)c1 [Compound 49, 2-(3-Chlorophenoxy)-N-(3-(5-(morpholinomethyl)-1H-benzo[d]imidazol-2-yl)-1H-pyrazol-4-yl)pyrimidin-4-amine]
23 | 501 to 1000 nM | Clc1ccc(Oc2nccc(Nc3c[nH]nc3-c3nc4cc(CN5CCOCC5)ccc4[nH]3)n2)cc1 [Compound 50, 2-(4-Chlorophenoxy)-N-(3-(5-(morpholinomethyl)-1H-benzo[d]imidazol-2-yl)-1H-pyrazol-4-yl)pyrimidin-4-amine]
